What all share (assay type): cell-based
The test system of one experiment is Colletotrichum capsici. Put plainly: Colletotrichum capsici (anthracnose) in vitro test, radial growth on Potato Dextrose Agar. The settings on record: Colletotrichum truncatum, 168 h; 300 ppm; seven days, 25° C.; read-out: % control compared to the untreated check (radial growth).
The subject of the next experiment is Septoria lycopersici. The experiment is described as follows: Septoria lycopersici (leaf spot of tomato) in vitro test, radial growth on Potato Dextrose Agar. As to conditions: 168 h, seven days, 25° C., read-out: % control compared to the untreated check (radial growth).
A further experiment has as its system Rhizoctonia solani. Put plainly: Rhizoctonia solani (rice sheath blight/potato black scurf) in vitro test, radial growth on Potato Dextrose Agar. The settings on record: 168 h, 300 ppm, seven days, 25° C., read-out: % control compared to the untreated check (radial growth).
The next experiment relates to Alternaria solani. The experiment is described as follows: Alternaria solani (early blight of tomato/potato) in vitro test, radial growth on Potato Dextrose Agar. As to conditions: 168 h, 300 ppm, seven days, 25° C., read-out: % control compared to the untreated check (radial growth).
For the next experiment, the system named is Pyricularia oryzae. Put plainly: microbe, parasite or virus in culture. The settings on record: 168 h, read-out: % control compared to the untreated check (radial growth).
In another experiment the test system is Botrytis cinerea. Put plainly: Botrytis cinerea (gray mold) in vitro test, radial growth on Potato Dextrose Agar. As to conditions: 168 h, 300 ppm, seven days, 22° C., read-out: % (control) compared to the untreated check (radial growth).

The structures appear in SMILES notation.

Take `CCN(C)C=Nc1cc(C)c(Cc2cccc(F)c2Cl)cc1C` [Compound 131, N′-(4-(2-chloro-3-fluorobenzyl)-2,5-dimethylphenyl)-N-ethyl-N-methylformimidamide]: the inhibition of growth at 300 ppm in the experiment on Colletotrichum capsici is more than 80%; with Septoria lycopersici, more than 70%; in the experiment on Rhizoctonia solani it was more than 80%; with Alternaria solani, more than 75%; with Pyricularia oryzae, more than 75%; in the experiment on Botrytis cinerea, more than 80%.

Take `CCN(C)C=Nc1ccc(Cc2ccccc2Cl)c2ccccc12` [Compound 270, N′-(4-(2-chlorobenzyl)naphthalen-1-yl)-N-ethyl-N-methylformimidamide]: the inhibition of growth at 300 ppm in the experiment on Colletotrichum capsici is more than 80%; with Septoria lycopersici, more than 70%; in the experiment with Rhizoctonia solani, more than 80%; in the experiment on Alternaria solani, more than 75%; with Pyricularia oryzae, more than 75%; with Botrytis cinerea, more than 80%.

With `Cc1cc(N(C#N)C=N)c(C)cc1Cc1ccccc1F` [Compound 64, N-cyano-N-(4-(2-fluorobenzyl)-2,5-dimethylphenyl)formimidamide], the inhibition of growth at 300 ppm in the experiment on Septoria lycopersici was more than 70%; in the experiment on Pyricularia oryzae, more than 75%.

Consider `CCN(C)C=Nc1cc(Cl)c(Cc2ccccc2Cl)cc1C` [Compound 255, N′-(5-chloro-4-(2-chlorobenzyl)-2-methylphenyl)-N-ethyl-N-methylformimidamide], for which the inhibition of growth at 300 ppm in the experiment with Colletotrichum capsici is more than 80%; with Septoria lycopersici, more than 70%; in the experiment with Rhizoctonia solani, more than 80%; with Alternaria solani, more than 75%; in the experiment with Pyricularia oryzae, more than 75%; with Botrytis cinerea it was more than 80%.

As for `CCN(C)C=Nc1cc(F)c(Cc2cccc(Cl)c2)cc1F` [Compound 243, N′-(4-(3-chlorobenzyl)-2,5-difluorophenyl)-N-ethyl-N-methylformimidamide], the inhibition of growth at 300 ppm with Colletotrichum capsici was more than 80%; in the experiment on Septoria lycopersici it was more than 70%; in the experiment on Rhizoctonia solani it was more than 80%; in the experiment with Alternaria solani it was more than 75%; in the experiment with Pyricularia oryzae, more than 75%.

As for `CCN(C)C=Nc1cc(C)c(Cc2cc(C(F)(F)F)cc(C(F)(F)F)c2)cc1C` [Compound 106, N′-(4-(3,5-bis(trifluoromethyl)benzyl)-2,5-dimethylphenyl)-N-ethyl-N-methylformimidamide], the inhibition of growth at 300 ppm was more than 80% in the experiment on Colletotrichum capsici; more than 70% with Septoria lycopersici; more than 80% in the experiment with Rhizoctonia solani; more than 75% with Alternaria solani; more than 75% in the experiment on Pyricularia oryzae; more than 80% with Botrytis cinerea.

As to `CCN(C)C=Nc1cc(C)c(Cc2ccccc2OC(F)(F)F)cc1C` [Compound 116, N′-(2,5-dimethyl-4-(2-(trifluoromethoxy)benzyl)phenyl)-N-ethyl-N-methylformimidamide], the inhibition of growth at 300 ppm in the experiment on Colletotrichum capsici was more than 80%; in the experiment with Septoria lycopersici, more than 70%; with Rhizoctonia solani, more than 80%; with Alternaria solani, more than 75%; with Pyricularia oryzae, more than 75%; in the experiment with Botrytis cinerea, more than 80%.

As to `CCN(C)C=Nc1cc(C)c(Cc2ccc(Cl)c(OC(F)(F)F)c2)cc1Cl` [Compound 177, N′-(2-chloro-4-(4-chloro-3-(trifluoromethoxy)benzyl)-5-methylphenyl)-N-ethyl-N-methylformimidamide], the inhibition of growth at 300 ppm is more than 80% with Colletotrichum capsici; more than 70% with Septoria lycopersici; more than 80% in the experiment on Rhizoctonia solani; more than 75% in the experiment with Alternaria solani; more than 75% in the experiment with Pyricularia oryzae; more than 80% in the experiment with Botrytis cinerea.

As to `CCN(C)C=Nc1cc(C#N)c(Cc2ccccc2Cl)cc1C` [Compound 246, N′-(4-(2-chlorobenzyl)-5-cyano-2-methylphenyl)-N-ethyl-N-methylformimidamide], the inhibition of growth at 300 ppm with Colletotrichum capsici is more than 80%; in the experiment on Septoria lycopersici, more than 70%; in the experiment on Rhizoctonia solani, more than 80%; with Alternaria solani it was more than 75%; in the experiment with Pyricularia oryzae, more than 75%; in the experiment with Botrytis cinerea, more than 80%.

As for `CCN(C)C=Nc1cc(C)c(Cc2cc(C(F)(F)F)ccc2Cl)cc1Cl` [Compound 168, N′-(2-chloro-4-(2-chloro-5-(trifluoromethyl)benzyl)-5-methylphenyl)-N-ethyl-N-methylformimidamide], the inhibition of growth at 300 ppm in the experiment with Colletotrichum capsici was more than 80%; with Septoria lycopersici it was more than 70%; in the experiment with Rhizoctonia solani, more than 80%; in the experiment with Alternaria solani, more than 75%; in the experiment with Pyricularia oryzae it was more than 75%; with Botrytis cinerea, more than 80%.

As for `CCN(C)C=Nc1cc(C#N)c(Cc2ccccc2C)cc1C` [Compound 248, N′-(5-cyano-2-methyl-4-(2-methylbenzyl)phenyl)-N-ethyl-N-methylformimidamide], the inhibition of growth at 300 ppm was more than 70% in the experiment on Septoria lycopersici; more than 80% with Rhizoctonia solani; more than 75% in the experiment on Alternaria solani; more than 75% with Pyricularia oryzae; more than 80% in the experiment on Botrytis cinerea.

Turning to `Cc1cc(N=CN2CCOCC2)c(C)cc1Cc1ccc(F)c(Cl)c1` [Compound 34, N-(4-(3-chloro-4-fluorobenzyl)-2,5-dimethylphenyl)-1-morpholinomethanimine], the inhibition of growth at 300 ppm in the experiment with Colletotrichum capsici was more than 80%; in the experiment with Septoria lycopersici it was more than 70%; with Rhizoctonia solani, more than 80%; with Alternaria solani, more than 75%; in the experiment with Pyricularia oryzae, more than 75%.

Consider `CCN(C)C=Nc1cc(C)c(Cc2cccc(F)c2)cc1S(C)(=O)=O` [Compound 216, N-ethyl-N′-(4-(3-fluorobenzyl)-5-methyl-2-(methylsulfonyl)phenyl)-N-methylformimidamide], for which the inhibition of growth at 300 ppm in the experiment with Septoria lycopersici is more than 70%; in the experiment with Rhizoctonia solani, more than 80%; in the experiment on Alternaria solani, more than 75%; in the experiment with Pyricularia oryzae it was more than 75%.

In the case of `CCN(C)C=Nc1cc(C)c(Cc2ccc(Cl)c(Cl)c2)cc1Cl` [Compound 20, N′-(2-chloro-4-(3,4-dichlorobenzyl)-5-methylphenyl)-N-ethyl-N-methylformimidamide], the inhibition of growth at 300 ppm with Colletotrichum capsici was more than 80%; with Septoria lycopersici it was more than 70%; with Rhizoctonia solani it was more than 80%; with Alternaria solani it was more than 75%; in the experiment on Pyricularia oryzae, more than 75%.

`CCN(C)C=Nc1cc(C(F)(F)F)c(Cc2ccccc2C)cc1F` [Compound 228, N-ethyl-N′-(2-fluoro-4-(2-methylbenzyl)-5-(trifluoromethyl)phenyl)-N-methylformimidamide]: the inhibition of growth at 300 ppm is more than 70% with Septoria lycopersici, more than 80% in the experiment with Rhizoctonia solani, more than 75% in the experiment on Alternaria solani and more than 75% with Pyricularia oryzae.

For `CCN(C)C=Nc1cc(C)c(Cc2c(Cl)cccc2Cl)cc1Cl` [Compound 195, N′-(2-chloro-4-(2,6-dichlorobenzyl)-5-methylphenyl)-N-ethyl-N-methylformimidamide], the inhibition of growth at 300 ppm with Colletotrichum capsici was more than 80%; in the experiment on Septoria lycopersici it was more than 70%; with Alternaria solani it was more than 75%; with Pyricularia oryzae, more than 75%; in the experiment on Botrytis cinerea, more than 80%.

Consider `CCN(C)C=Nc1cc(C(F)(F)F)c(Cc2cccc(Cl)c2)cc1F` [Compound 229, N′-(4-(3-chlorobenzyl)-2-fluoro-5-(trifluoromethyl)phenyl)-N-ethyl-N-methylformimidamide], for which the inhibition of growth at 300 ppm in the experiment on Septoria lycopersici was more than 70%; in the experiment with Rhizoctonia solani, more than 80%; in the experiment on Alternaria solani it was more than 75%; with Pyricularia oryzae, more than 75%.

Regarding `CCN(C)C=Nc1cc(C)c(Cc2cc(Cl)cc(Cl)c2)cc1Cl` [Compound 21, N′-(2-chloro-4-(3,5-dichlorobenzyl)-5-methylphenyl)-N-ethyl-N-methylformimidamide], the inhibition of growth at 300 ppm was more than 80% in the experiment on Colletotrichum capsici; more than 80% in the experiment with Rhizoctonia solani; more than 75% with Alternaria solani; more than 75% in the experiment on Pyricularia oryzae; more than 80% in the experiment on Botrytis cinerea.

Take `CCN(C)C=Nc1cc(C)c(Cc2cccc(Cl)c2F)cc1Cl` [Compound 123, N′-(2-chloro-4-(3-chloro-2-fluorobenzyl)-5-methylphenyl)-N-ethyl-N-methylformimidamide]: the inhibition of growth at 300 ppm in the experiment with Colletotrichum capsici is more than 80%; with Rhizoctonia solani it was more than 80%; with Alternaria solani, more than 75%; with Pyricularia oryzae, more than 75%; in the experiment with Botrytis cinerea, more than 80%.

On to `CCN(C)C=Nc1cc(F)c(Cc2cccc(C)c2)cc1F` [Compound 244, N′-(2,5-difluoro-4-(3-methylbenzyl)phenyl)-N-ethyl-N-methylformimidamide], for which the inhibition of growth at 300 ppm in the experiment with Septoria lycopersici is more than 70%; in the experiment on Rhizoctonia solani it was more than 80%; in the experiment with Alternaria solani it was more than 75%; with Pyricularia oryzae it was more than 75%; in the experiment on Botrytis cinerea, more than 80%.

Regarding `Cc1cc(N=CN2CCSCC2)c(C)cc1Cc1ccccc1F` [Compound 85, N-(4-(2-fluorobenzyl)-2,5-dimethylphenyl)-1-thiomorpholinomethanimine], the inhibition of growth at 300 ppm with Colletotrichum capsici is more than 80%; with Rhizoctonia solani, more than 80%; in the experiment with Alternaria solani, more than 75%; in the experiment on Pyricularia oryzae, more than 75%; in the experiment on Botrytis cinerea, more than 80%.

The values are drawn from patent US11155517B2, “4-substituted phenylamine derivatives and their use to protect crops by fighting undesired phytopathogenic micoorganisms” (PI INDUSTRIES LTD., priority 2016, dated 2021).
